Laboratory results published in PubChem BioAssay AID434938 (Broad Institute, 2010).
Results filed as inconclusive are left out. The source made the active and inactive calls.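 The calls were made as follows: active = EC50 no greater than ten times the top concentration tested; inconclusive = flat fit with inhibition between 30% and 70%, or an invalid poor-quality fit; inactive = EC50 beyond ten times the top concentration.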

tested on: S. cerevisiae GRE-lacZ reporter, Hsp90 function, luminescence; assay: loss of Hsp90-dependent reporter luminescence – S. cerevisiae, mechanism study for C. albicans Hsp90 inhibitor project, SAR follow-up (AID 434938)

EC50	Structure (SMILES)
> 26 µM (inactive)	COc1ccc(-n2nc(C(=O)NCC(=O)N3CCN(c4ccccc4)CC3)c3ccccc3c2=O)c(OC)c1
8.43 µM	Cc1ccc(/C=C/C(=O)c2ccccc(=O)c2O)cc1C
15.1 µM	O=C(Nc1sc2c(c1C(=O)c1ccc(Cl)cc1)CCCC2)c1cccnc1
> 26 µM (inactive)	COc1ccc(-c2nnc(NC(=O)c3ccc(F)cc3)o2)cc1
> 26 µM (inactive)	O=C(Nc1nnc(CCc2ccccc2)s1)c1ccco1
> 26 µM (inactive)	Cc1ccc(C(=O)Nc2cccc(-c3cn4ccccc4n3)c2)cc1
> 26 µM (inactive)	O=C(Nc1nnc(SCc2ccc(Cl)cc2)s1)c1ccc2ccccc2n1
> 26 µM (inactive)	CCCC(=O)NC(c1ccccc1)c1ccc2cccnc2c1O (centres undefined)
16.5 µM	CCOC(=O)c1c(-c2ccccc2Cl)cn2ccccc12
7.66 µM	Cc1ccc(C(=O)c2coc3c2C(=O)C(=O)c2ccccc2-3)cc1

The next lines start with the compound.

Structure (SMILES)	EC50
O=C(Nc1nc(-c2ccccn2)cs1)c1ccc(Br)s1	4.74 µM
O=C(Oc1c(Cl)cc(Cl)c2cccnc12)c1cccs1	12 µM
O=c1c2cc(Br)ccc2nc(-c2cccc(C(F)(F)F)c2)n1O	10.2 µM
Clc1ccc2c(c1)C(c1cccs1)=NNC(c1cccnc1)=N2	26.7 µM
Cc1oc2c(F)c(F)c(F)c(F)c2c1S(=O)(=O)Nc1cccc(C(F)(F)F)c1	8.89 µM
CCc1ccc2c(c1)/C(=C/C(=O)c1cccs1)C(=O)N2	2.91 µM
O=C(Nc1nnc(-c2ccc3c(c2)CCCC3)o1)c1ccc(Cl)cc1Cl	2.16 µM
CC(C)COCc1ccc(O)c2ncccc12	> 26 µM (inactive)
Cc1ccc(Nc2nc(N)c([N+](=O)[O-])c(N3CCC(C)CC3)n2)cc1C	9.91 µM
